Laboratory results published in ChEMBL document CHEMBL1938277, “N-acylaminophenothiazines: neuroprotective agents displaying multifunctional activities for a potential treatment of Alzheimer's disease” (Eur J Med Chem, 2011).
pIC50: −log10 of the molar value.

Assays:
SH-SY5Y [1] = assay: Neuroprotective activity against H2O2-induced cell death in human SH-SY5Y cells assessed as LDH release at 1 uM incubated for 24 hrs before H2O2 challenge measured after 24 hrs relative to control; type: functional
SH-SY5Y [2] = assay: Neuroprotective activity against H2O2-induced cell death in human SH-SY5Y cells assessed as LDH release at 30 uM incubated for 24 hrs before H2O2 challenge measured after 24 hrs relative to control; type: functional
Cholinesterase = Cholinesterase (Equus caballus, UniProt P81908)
Cholinesterase, sequence (P81908 whole entry): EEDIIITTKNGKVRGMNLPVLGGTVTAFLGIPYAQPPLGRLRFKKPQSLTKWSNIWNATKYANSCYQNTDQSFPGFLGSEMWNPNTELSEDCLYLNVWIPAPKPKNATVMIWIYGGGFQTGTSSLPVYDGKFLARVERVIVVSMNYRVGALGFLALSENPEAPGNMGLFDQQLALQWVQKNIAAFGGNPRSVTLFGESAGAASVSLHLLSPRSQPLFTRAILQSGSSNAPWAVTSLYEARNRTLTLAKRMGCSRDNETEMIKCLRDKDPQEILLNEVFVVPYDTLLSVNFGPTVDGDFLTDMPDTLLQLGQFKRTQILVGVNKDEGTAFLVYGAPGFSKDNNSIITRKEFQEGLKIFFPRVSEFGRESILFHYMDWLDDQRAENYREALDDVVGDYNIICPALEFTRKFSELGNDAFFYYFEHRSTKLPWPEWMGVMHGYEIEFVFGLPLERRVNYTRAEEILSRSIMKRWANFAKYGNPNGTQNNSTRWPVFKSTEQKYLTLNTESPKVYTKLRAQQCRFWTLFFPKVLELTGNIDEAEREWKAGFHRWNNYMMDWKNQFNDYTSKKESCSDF
Description: Inhibition of BuChE in horse serum using butyrylthiocholine as substrate by Ellman method

in vitro = details: PAMPA
Description: Permeability of the compound by PAMPA assay

SH-SY5Y [3] = assay: Neuroprotective activity against H2O2-induced cell death in human SH-SY5Y cells assessed as LDH release at 3 uM incubated for 24 hrs before H2O2 challenge measured after 24 hrs relative to control; type: functional
SH-SY5Y [4] = assay: Neuroprotective activity against H2O2-induced cell death in human SH-SY5Y cells assessed as LDH release at 10 uM incubated for 24 hrs before H2O2 challenge measured after 24 hrs relative to control; type: functional
Acetylcholinesterase = target: T1, Acetylcholinesterase (Bos taurus, UniProt P23795); assay: biochemical
T1 sequence (P23795 whole entry): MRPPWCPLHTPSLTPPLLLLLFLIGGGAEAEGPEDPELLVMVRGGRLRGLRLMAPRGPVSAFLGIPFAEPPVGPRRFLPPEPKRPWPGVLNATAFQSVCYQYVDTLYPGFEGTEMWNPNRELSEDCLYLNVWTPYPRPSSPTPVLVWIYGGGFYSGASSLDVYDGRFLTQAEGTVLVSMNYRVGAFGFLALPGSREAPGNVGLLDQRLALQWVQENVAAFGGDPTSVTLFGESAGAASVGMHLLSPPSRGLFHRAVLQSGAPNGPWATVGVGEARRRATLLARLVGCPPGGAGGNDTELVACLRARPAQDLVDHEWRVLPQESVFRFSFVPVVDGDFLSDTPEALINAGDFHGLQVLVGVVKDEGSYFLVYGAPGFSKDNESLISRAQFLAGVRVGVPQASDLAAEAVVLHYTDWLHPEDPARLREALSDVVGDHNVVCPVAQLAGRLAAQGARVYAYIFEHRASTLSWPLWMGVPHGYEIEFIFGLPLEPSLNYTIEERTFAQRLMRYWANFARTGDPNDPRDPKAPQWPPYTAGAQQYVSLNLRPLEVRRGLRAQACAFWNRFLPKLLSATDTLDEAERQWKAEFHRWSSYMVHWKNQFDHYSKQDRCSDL
Description: Inhibition of AChE in bovine erythrocytes using acetylthiocholine as substrate by Ellman method

SH-SY5Y [5] = assay: Neuroprotective activity against amyloid beta 1 to 42-induced cell death in human SH-SY5Y cells assessed as increase in cell viability at 0.3 uM pre-incubated for 24 hrs before amyloid beta 1 to 42 challenge measured after 24 hrs by MTT assay relative to control; type: functional
SH-SY5Y [6] = assay: Neuroprotective activity against rotenone/oligomycin A-induced cell death in human SH-SY5Y cells assessed as LDH release at 3 uM treated 24 hrs before rotenone/oligomycin A challenge measured after 24 hrs relative to control; type: functional
SH-SY5Y [7] = assay: Neuroprotective activity against amyloid beta 1 to 42-induced cell death in human SH-SY5Y cells assessed as increase in cell viability at 1 uM pre-incubated for 24 hrs before amyloid beta 1 to 42 challenge measured after 24 hrs by MTT assay relative to control; type: functional
SH-SY5Y [8] = assay: Neuroprotective activity against okadaic acid-induced cell death in human SH-SY5Y cells assessed as LDH release at 0.3 uM treated 24 hrs before okadaic acid challenge measured after 24 hrs relative to control; type: functional
SH-SY5Y [9] = assay: Neuroprotective activity against rotenone/oligomycin A-induced cell death in human SH-SY5Y cells assessed as LDH release at 0.3 uM treated 24 hrs before rotenone/oligomycin A challenge measured after 24 hrs relative to control; type: functional
SH-SY5Y [10] = assay: Neuroprotective activity against rotenone/oligomycin A-induced cell death in human SH-SY5Y cells assessed as LDH release at 0.3 uM after 24 hrs relative to control; type: functional
SH-SY5Y [11] = assay: Antioxidant activity in human SH-SY5Y cells assessed as sequestering of rotenone/oligomycin A-induced mitochondrial free radicals at 0.3 uM after 120 mins by DCFH-DA assay; type: functional
SH-SY5Y [12] = assay: Neuroprotective activity against amyloid beta 1 to 42-induced cell death in human SH-SY5Y cells assessed as increase in cell viability at 3 uM pre-incubated for 24 hrs before amyloid beta 1 to 42 challenge measured after 24 hrs by MTT assay relative to control; type: functional
SH-SY5Y [13] = assay: Neuroprotective activity against FPL64176-induced toxicity in human SH-SY5Y cells assessed as increase in cell viability at 10 uM treated 24 hrs before FPL64176 challenge measured after 24 hrs by MTT assay relative to control; type: functional
SH-SY5Y [14] = assay: Neuroprotective activity against FPL64176-induced toxicity in human SH-SY5Y cells assessed as increase in cell viability at 1 uM treated 24 hrs before FPL64176 challenge measured after 24 hrs by MTT assay relative to control; type: functional
SH-SY5Y [15] = assay: Neuroprotective activity against FPL64176-induced toxicity in human SH-SY5Y cells assessed as increase in cell viability at 0.3 uM treated 24 hrs before FPL64176 challenge measured after 24 hrs by MTT assay relative to control; type: functional
SH-SY5Y [16] = assay: Neuroprotective activity against rotenone/oligomycin A-induced cell death in human SH-SY5Y cells assessed as LDH release at […] after 24 hrs relative to control; type: functional
SH-SY5Y [17] = assay: Neuroprotective activity against rotenone/oligomycin A-induced cell death in human SH-SY5Y cells assessed as LDH release at 1 uM after 24 hrs relative to control; type: functional
SH-SY5Y [18] = assay: Neuroprotective activity against okadaic acid-induced cell death in human SH-SY5Y cells assessed as LDH release at 3 uM treated 24 hrs before okadaic acid challenge measured after 24 hrs relative to control; type: functional
SH-SY5Y [19] = assay: Neuroprotective activity against okadaic acid-induced cell death in human SH-SY5Y cells assessed as LDH release at 1 uM treated 24 hrs before okadaic acid challenge measured after 24 hrs relative to control; type: functional
SH-SY5Y [20] = assay: Cytotoxicity against human SH-SY5Y cells; type: cell-based
SH-SY5Y [21] = assay: Neuroprotective activity against rotenone/oligomycin A-induced cell death in human SH-SY5Y cells assessed as LDH release at 1 uM treated 24 hrs before rotenone/oligomycin A challenge measured after 24 hrs relative to control; type: functional
SH-SY5Y [22] = assay: Neuroprotective activity against rotenone/oligomycin A-induced cell death in human SH-SY5Y cells assessed as LDH release at 0.1 uM after 24 hrs relative to control; type: functional
SH-SY5Y [23] = assay: Neuroprotective activity against rotenone/oligomycin A-induced cell death in human SH-SY5Y cells assessed as LDH release at 0.1 uM treated 24 hrs before rotenone/oligomycin A challenge measured after 24 hrs relative to control; type: functional
SH-SY5Y [24] = assay: Neuroprotective activity against amyloid beta 1 to 42-induced cell death in human SH-SY5Y cells assessed as increase in cell viability at 10 nM pre-incubated for 24 hrs before amyloid beta 1 to 42 challenge measured after 24 hrs by MTT assay relative to control; type: functional
SH-SY5Y [25] = assay: Inhibition of potassium chloride-induced cytosolic calcium level in human SH-SY5Y cells at 10 uM treated after 10 mins before potassium chloride challenge by Fluo-4/AM fluorescence assay; type: functional

SMILES	Activity (SH-SY5Y [1]) [%]	Activity (SH-SY5Y [2]) [%]	pIC50 (Cholinesterase)	Papp (in vitro) [×10⁻⁶ cm/s]	Activity (SH-SY5Y [3]) [%]	Activity (SH-SY5Y [4]) [%]	pIC50 (Acetylcholinesterase)	also measured
CN1CCN(CCC(=O)NN2c3ccccc3Sc3cc(Cl)ccc32)CC1	43.9	72.8	6.05	13.8	56.6	68.6	< 4.00	
CN(C)CC(=O)NN1c2ccccc2Sc2ccccc21	30.5	22	5.77	18.3	26.3	38.6	< 4.00	
CN(C)CC(=O)NN1c2ccccc2Sc2ccc(Cl)cc21	15.6	23.2	5.15	13.5	29.5	42.6	< 4.00	
CN(C)CC(=O)NN1c2ccccc2Sc2cc(Cl)ccc21	59.8	9.7	5.30	15.5	62.7	28.2	< 4.00	
O=C(CN1CCCCC1)NN1c2ccccc2Sc2ccccc21	27.2	10.1	6.40	16.4	26.1	9.7	< 4.00	
O=C(CN1CCCCC1)NN1c2ccccc2Sc2cccc(Cl)c21	1.1	32.6	5.66	13.9	9.9	0	< 4.00	
O=C(CN1CCCCC1)NN1c2ccccc2Sc2ccc(Cl)cc21	66.1	76.4	< 4.00	9.1	80.8	73.8	< 4.00	
O=C(CN1CCCCC1)NN1c2ccccc2Sc2cc(Cl)ccc21	25.4	17.8	6.15	14.7	55.2	44.9	< 4.00	
O=C(CN1CCCC1)NN1c2ccccc2Sc2ccccc21	13.1	23.3	6.10	10.5	35.6	18.9	< 4.00	
O=C(CN1CCCC1)NN1c2ccccc2Sc2ccc(Cl)cc21	17.4	55.6	5.37	11.2	48.9	54.8	< 4.00	
O=C(CN1CCCC1)NN1c2ccccc2Sc2cc(Cl)ccc21	54.6	69.5	6.00	14.9	57.7	79.9	< 4.00	Activity (SH-SY5Y [5]): 91.3%; Activity (SH-SY5Y [6]): 58.9%; Activity (SH-SY5Y [7]): 81.3%; Activity (SH-SY5Y [8]): 28.3%; Activity (SH-SY5Y [9]): 55%; Activity (SH-SY5Y [10]): 28.6%; Activity (SH-SY5Y [11]): 14.7%; Activity (SH-SY5Y [12]): 13.6%; Activity (SH-SY5Y [13]): 36.3%; Activity (SH-SY5Y [14]): 44.5%; Activity (SH-SY5Y [15]): 39.8%; Activity (SH-SY5Y [16]): 44.3%; Activity (SH-SY5Y [17]): 44.1%; Activity (SH-SY5Y [18]): 29%; Activity (SH-SY5Y [19]): 32%; Activity (SH-SY5Y [20]): Non-toxic; Activity (SH-SY5Y [21]): 51.8%
CC(=O)NN1c2ccccc2Sc2cc(Cl)ccc21	40.3	21.2	< 4.00	9.8	52.2	37.2	< 4.00	
O=C(CCN1CCCC1)NN1c2ccccc2Sc2ccccc21	90.1	72.5	5.85	17.3	81.4	88	< 4.00	Activity (SH-SY5Y [22]): 66.1%; Activity (SH-SY5Y [9]): 42.4%; Activity (SH-SY5Y [10]): 63.7%; Activity (SH-SY5Y [11]): 23.8%; Activity (SH-SY5Y [17]): 52.6%; Activity (SH-SY5Y [23]): 58.8%; Activity (SH-SY5Y [20]): Non-toxic; Activity (SH-SY5Y [21]): 16.5%
O=C(CCN1CCCC1)NN1c2ccccc2Sc2cc(Cl)ccc21	34.4	49	5.52	16.4	57.2	29.4	< 4.00	
COc1ccc2c(c1)Sc1ccccc1N2NC(=O)CCN1CCCC1	17.8	0	6.10	8.7	11.8	0	< 4.00	
CN1CCN(CCC(=O)NN2c3ccccc3Sc3ccccc32)CC1	82.9	6.3	5.89	17	34.5	22.8	< 4.00	
COc1ccc2c(c1)Sc1ccccc1N2NC(=O)CCN1CCN(C)CC1	49.5	55.1	5.70	16.8	42.1	66.5	< 4.00	Activity (SH-SY5Y [22]): 66.3%; Activity (SH-SY5Y [9]): 49.4%; Activity (SH-SY5Y [10]): 57.9%; Activity (SH-SY5Y [11]): 24.2%; Activity (SH-SY5Y [17]): 65.4%; Activity (SH-SY5Y [23]): 37.2%; Activity (SH-SY5Y [20]): Non-toxic; Activity (SH-SY5Y [21]): 50.8%
CN1CCN(CCC(=O)NN2c3ccccc3Sc3cc([N+](=O)[O-])ccc32)CC1	41.3	31.7	5.82	14.6	46.5	46.2	< 4.00	
COc1ccc2c3c1O[C@H]1C[C@@H](O)C=C[C@@]31CCN(C)C2 [GALANTAMINE]								Activity (SH-SY5Y [8]): 36%
COc1ccc2[nH]cc(CCNC(C)=O)c2c1 [MELATONIN]								Activity (SH-SY5Y [24]): 72%
COC(=O)C1=C(C)NC(C)=C(C(=O)OC)C1c1ccccc1[N+](=O)[O-] [NIFEDIPINE]								inhibition at 10 µM (SH-SY5Y [25]): 45%
Cc1c(C)c2c(c(C)c1O)CCC(C)(C(=O)O)O2 (stereo unspecified) [TROLOX]		57.7						Activity (SH-SY5Y [6]): 65.1%; Activity (SH-SY5Y [11]): 27.8%; Activity (SH-SY5Y [16]): 63.7%
